Experiments:
H23 cell line [1] = assay: Nuclear morphology (pyknotic nuclei) by DAPI staining, H23; assay type: cell-based, human
Procedure: (§1) To confirm the ability of LBH589 to sensitize human lung cancer cell lines to radiation induced apoptosis, nuclear morphology studies were performed. […] DAPI staining of cells treated with LBH589 and IR. Cells were subcultured onto slides and treated with 25 nM LBH589 for 18 hours followed by 3 Gy. Eighteen (18) hours later cells were fixed and stained with DAPI. Shown is the percentage of pyknotic nuclei and standard error (n=3) determined by manual counts from microscopy. *P<0.05 compared to control.

H23 cell line [2] = assay: Annexin V-FITC/PI flow cytometry analysis of apoptosis, H23; assay type: cell-based, human
Procedure: (§2) LBH589 enhances radiation induced apoptosis. To study the effect of HDAC inhibition by LBH589 on apoptosis three in vitro experiments were performed. FIG. 2 show results from Annexin V-FITC/PI flow cytometry analysis of apoptosis. H23 and H460 cells lines were treated with 25 nM LBH589 for 18 hrs then irradiated with 3 Gy. Twenty (20) hours later, cells were harvested, stained with Annexin-FITC and PI, and analyzed by flow cytometry. Shown is the number of apoptotic cells and standard error (n=3) for each treatment condition. *P<0.05 compared to control.

H460 cells = assay: Tumor growth delay in H460 xenograft tumor model; assay type: in vivo, nude mice; settings: 10-fold increase in tumor volume as reference
Procedure: Tumor Volume Assessment. LLC, H450 and H23 cells are implanted into C57BL6 and nude mice, respectively. 106 viable cells suspended in 0.1 mL of cell medium are injected s.c. into the hind-limb. Each group of mice are comprised of 12 mice which are stratified into two groups to create approximately the same mean tumor volume. The mean volume of the tumors in mice at the time of treatment (day 0) with radiation, control, irradiated, LBH589 alone and LBH589 given prior to radiation are approximately 200 mm^3. Irradiated mice are immobilized with 140 μL of ketamine, and the entire body are shielded with lead, except for the tumor-bearing hind limb. A total dose of 21 Gy are administered in seven fractionated doses on days 0-4, 7 and 8. The LBH589 group receive of LBH589 administered p.o. via esophageal injection on days-1 and 6.
Tumor volumes were measured on days 0, 2, 4, 7, 9, 11, 14, 16, 18, 20 and 22 using skin calipers. Tumor volumes were calculated from a formula (a×b×c/2) that are derived from the formula for an ellipsoid (πd3/6). Data were calculated as the percentage of original (day 0) tumor volume and graphed as fractional tumor volume±SD for each treatment group. […]
H460 cells were injected in the hind limb of nude mice and allowed to grow for one week. […] B, shown is the mean tumor growth delay and standard error calculated using a 10-fold increase in tumor volume as reference.

γ-H2AX foci [3] = assay: γ-H2AX foci immunostaining, H23; assay type: cell-based, human
Procedure: LBH589 prolongs the duration of radiation induced γ-H2AX foci. Immunostaining was performed to study γ-H2AX foci present at DNA double strand breaks. […] The red staining of γ-H2AX foci and blue staining of the DAPI counterstain are shown. 3 Gy induced γ-H2AX foci as early as 30 minutes following treatment. These foci disappeared by 6 hrs in cell lines treated with IR alone. […] In comparison, LBH589 added 18 hours prior to IR prolonged the duration of γ-H2AX foci for up to 24 hours after IR (42 hours after LBH589 administration). […] LBH589 prolongs duration of γ-H2AX foci in irradiated lung cancer cells. H23 cell line received the indicated treatment of 25 nM LBH589 and/or 3 Gy. Anti-γ-H2AX antibody was used for immunostaining with rhodamine red labeled secondary antibody (red). Cells were counterstained with DAPI (blue). Shown are representative photographs of the H23 cells line (A) at the indicated time points after IR. Arrows point to apoptotic cells. B, shown is the mean and standard error of cells with γ-H2AX nuclear foci. *P<0.05 compared to control.

HDAC4 [4] = assay: HDAC4 immunostaining (compartmentalization), H23; assay type: cell-based, human; settings: LBH589 added prior to IR
Procedure: (§3) Immunostaining of HDAC4 was performed on H23 and H460 cell lines to identify the effect of LBH589 on HDAC4 compartmentalization. […] When H460 cells were treated with 3 Gy, HDAC4 localized to the nucleus at 2 hours and minimal HDAC4 was present in the cytoplasm.

[5] = mouse, in vivo
Procedure: LBH589 enhances tumor growth delay in vivo. H460 cells were injected into the hind limb of mice. After tumor formation the mice were treated with two oral doses of 40 mg LBH589 and/or five 3 Gy fractions over seven days. […] IR alone delayed growth by approximately 4 days (P<0.001).

H460 cell lines = assay: Clonogenic analysis of H460 cell lines with LBH589 and 0-6 Gy; assay type: cell-based, human
Procedure: Results. LBH589 sensitizes NSCLC to the cytotoxic effects of ionizing radiation. Clonogenic analysis of H460 cell lines was performed using LBH589 and 0-6 Gy. […] Cells were suspended, counted with a hemocytometer, and plated at specific cell densities. Once attached, cells were treated with LBH589 for 1 hour or 18 hours followed by 0, 2, 4, or 6 Gy. Media was changed after IR and the cells were allowed to proliferate for 10 days. Shown is the average and standard error of the relative fractions of colonies (n=3).

cleaved caspase3 [6] = assay: Western immunoblot for cleaved caspase3, H23 whole cell lysates; assay type: cell-based, human
Procedure: (§4) Western Immunoblots. LLC, H450 and H23 cells are serum starved overnight in DMEM/F-12 media (Gibco). Cells are then treated with 10 μM of Compound III for 1 hour and/or irradiated with 3 Gy. Cells are washed twice with PBS and lysis buffer ([…] Tris, 150 mM NaCl, 1 mM EDTA, 1% Triton X-100, 2.5 mM Na PP, 1 mM phenylmethylsulfonyl fluoride, and 1 μg/mL leupeptin) are added. Protein concentration are quantified by the Bio-Rad method. Twenty (20) μg of total protein are loaded into each well and separated by 7% or 10% SDS-PAGE gel, depending on the size of the target protein being investigated. The proteins are transferred onto nitrocellulose membranes (Hybond ECL; Amersham, Arlington Heights, Ill.) and probed with primary antibodies to caspase3, cleaved caspase3, phospho-Akt, Akt, PDGFR α and β (Cell Signaling; 1:1000). Blots are washed and probed with goat anti-rabbit secondary antibody (Sigma; 1:1000). Cleavage of caspase 3 was analyzed to verify the role of apoptosis in cells treated with LBH589 and radiation. Western blot analysis was performed on H23 and H460 whole cell lysates. […] LBH589 induced caspase3 cleavage. H23 and H460 cells were treated with 25 nM LBH589 for 18 hours then irradiated with 3 Gy. Six hours later, protein was extracted, quantified, run in a 12% SDS-polyacrylamide gel, transferred, and probed with antibodies to cleaved caspase3 and actin. […]

H460 cell line [7] = assay: Annexin V-FITC/PI flow cytometry analysis of apoptosis, H460; assay type: cell-based, human
Procedure: as §2

cleaved caspase3 [8] = assay: Western immunoblot for cleaved caspase3, H460 whole cell lysates; assay type: cell-based, human
Procedure: as §4

H460 cell line [9] = assay: Nuclear morphology (pyknotic nuclei) by DAPI staining, H460; assay type: cell-based, human
Procedure: as §1

γ-H2AX foci [10] = assay: γ-H2AX foci immunostaining, H460; assay type: cell-based, human
HDAC4 [11] = assay: HDAC4 immunostaining (compartmentalization), H460; assay type: cell-based, human
Procedure: as §3

[12] = 25 nM LBH589 18 hours prior to 3 Gy, 18 hours later
[13] = 25 nM LBH589 18 hours prior to IR 3 Gy, 6 hours later

Cc1[nH]c2ccccc2c1CCNCc1ccc(/C=C/C(=O)NO)cc1 [LBH589, N-hydroxy-3-[4-[[[2-(2-methyl-1H-indol-3-yl)-ethyl]-amino]methyl]phenyl]-2E-2-propenamide]
percentage of pyknotic nuclei (H23 cell line [1]; [12]): over 10% | apoptotic nuclei (H23 cell line [1]; LBH589 alone): 4% | number of apoptotic cells (H23 cell line [2]; 25 nM LBH589 18 hrs prior to 3 Gy, 20 hours later, control 7%): 30% | number of apoptotic cells (H23 cell line [2]; LBH589 alone 25 nM): only a minimal increase | tumor growth delay (H460 cells; LBH589 alone, two oral doses of 40 mg over seven days): two | tumor growth delay (H460 cells; combined: two oral doses of 40 mg LBH589 and five 3 Gy fractions over seven days): approximately 20 days | cells with γ-H2AX nuclear foci at 24 hours (γ-H2AX foci [3]; 25 nM LBH589 alone): < 5% | residual γ-H2AX foci at 24 hours (γ-H2AX foci [3]; 25 nM LBH589 prior to IR 3 Gy): 60% | duration of γ-H2AX foci after IR (γ-H2AX foci [3]; LBH589 added 18 hours prior to IR 3 Gy): up to 24 hours | γ-H2AX foci (γ-H2AX foci [3]; LBH589 alone for 20 hours): modest increase in γ-H2AX foci | HDAC4 nuclear localization (HDAC4 [4]): A similar effect was seen | signs of toxicity as monitored by weight loss and mobility [5]: minimal signs of toxicity | colony survival compared to untreated cells (H460 cell lines; LBH589 1 hour and 18 hours prior to IR (0-6 Gy), 10 days proliferation): synergistic decrease in colony survival | plating efficiency (H460 cell lines; LBH589 alone for 1 hour, compared to the control): no reduced plating efficiency | plating efficiency (H460 cell lines; LBH589 alone for 18 hours): significantly reduced plating efficiency | caspase3 cleavage, increase with LBH589 prior to IR (cleaved caspase3 [6]; [13]): not as prominent | caspase3 cleavage (cleaved caspase3 [6]; treatment with 25 nM LBH589): increase in caspase3 cleavage was evident | number of apoptotic cells (H460 cell line [7]; 25 nM LBH589 18 hrs prior to 3 Gy, 20 hours later, control 6%): 25% | number of apoptotic cells (H460 cell line [7]; LBH589 alone 25 nM): only a minimal increase | caspase3 cleavage (cleaved caspase3 [8]; [13]): increased levels of caspase3 cleavage | caspase3 cleavage (cleaved caspase3 [8]; treatment with 25 nM LBH589): increase in caspase3 cleavage was evident | percentage of pyknotic nuclei (H460 cell line [9]; [12]): over 10% | apoptotic nuclei (H460 cell line [9]; LBH589 alone): 2% | cells with γ-H2AX nuclear foci at 24 hours (γ-H2AX foci [10]; 25 nM LBH589 alone): < 5% | residual γ-H2AX foci at 24 hours (γ-H2AX foci [10]; 25 nM LBH589 prior to IR 3 Gy): 60% | HDAC4 nuclear localization (HDAC4 [11]; LBH589 added prior to IR 3 Gy): markedly limited HDAC4 nuclear localization | HDAC4 staining / localization (HDAC4 [11]; LBH589 alone): background HDAC4 staining in the cytoplasm and nucleus

Reference: patent publication US20100311805A1, “COMBINATION OF HISTONE DEACETYLASE INHIBITORS AND RADIATION” (NOVARTIS AG, priority 2005, published 2010)
